From patent US6897316B2, “Substituted 2-phenyl-4-quinolone-3-carboxylic acid compounds and their use as antitumor agents” (China Medical University, priority 2003, dated 2005)
Values after ≈ are worked out from the molar mass of the structure shown.

Key:
Assay type in all cases: cell-based, human
[1] = system: lung cancer cell line (A-549); experiment: Preliminary cytotoxicity screening against lung cancer cell line A-549 (SRB assay); conditions: Homo sapiens, A549; A-549; 50% reduction in absorbance at 562 nm relative to untreated cells, SRB assay; Table 1 (esters VII, acids IX); read-out: ED50 (cytotoxicity against A-549)
Procedure: (§1) Compounds were assayed for in vitro cytotoxicity in a panel of human tumor cell lines at the School of Pharmacy, University of North Carolina at Chapel Hill, according to procedures described previously [Lee, K. H., Lin, Y. M., Wu, T. S., Zhang, D. C., Yamagishi, T., Hayashi, T., Hall, I. H., Chang, J. J., Wu, R. Y., Yang, T. H. The cytotoxic principles of Prunella vulgaris, Psychotria serpens, and Hyptis capitata: Ursolic acid and related derivatives. Planta Med. 1988, 54, 308-11; Boyd, M. R. Status of the National Cancer Institute preclinical antitumor drug discovery screen: implications for selection of new agents for clinical trial. Devita, V. T., Jr. Hellman, S., Rosenberg, S. A., Eds, J. B. Cancer: Principles and Practice of Oncology Update, 1989, 3: pp1-12, Lippincoft: Philadephia; Monks, A., Scudiero, D., Skehan, P., Shoemaker, R., Paull, K., Vistica, D., Hose, C., Langley, J., Cronise, P., Vaigro-Wolff, A., Gray-Goodrich, M., Campbell, H., Mayo, J., Boyd, M. Feasibility of a high-flux anticancer drug screen using a diverse panel of cultured human tumor cell lines. J. Natl. Cancer Inst. 1991, 83, 757-66.] The cell lines included human ovarian cancer (1A9), ileocecal carcinoma (HCT-8), lung carcinoma (A-549), glioblastoma (U-87-MG), bone (HOS), epidermoid carcinoma of the naynx (KB), P-gp-expressing epidermoid carcinoma of the nasopharynx (KB-VIN), and melanoma (SKMEL-2) cell line. The cytotoxic effects of each compound were obtained as EC50 values, which represent the molar drug concentrations required to cause 50% inhibition.
Preliminary screening of antitumor activity was based on the cytotoxicity tested in human long cancer (A-549) cell lines. […] Among 3-carboxylic acid derivatives (IX), the cytotoxicity was not remarkable when the m-position of 2-phenyl group was substituted by OCH3 group (IX-3, 7, 11). ED50 values were greater than 20 μg/mL. […] The antitumor activity was not good, if there was no substitution on the m-position of 2-phenyl group ([…]).

[2] = system: Renal cancer (CAKI) cell line; experiment: Activity against HTCL replication, CAKI; conditions: mean ED50
Procedure: as §1, with “The cell lines included human ovarian cancer (1A9), ileocecal carcinoma (HCT-8), lung carcinoma (A-549), glioblastoma (U-87-MG), bone (HOS), epidermoid carcinoma of the naynx (KB), P-gp-expressing epidermoid carcinoma of the nasopharynx (KB-VIN), and melanoma (SKMEL-2) cell line. The cytotoxic effects of each compound were obtained as EC50 values, which represent the molar drug concentrations required to cause 50% inhibition.” left out

[3] = system: Vincristine-resistant epidermoid carcinoma of the nasopharynx (KB-VIN) cell line; experiment: Activity against HTCL replication, KB-VIN; conditions: mean ED50
Procedure: as §1, with “The cell lines included human ovarian cancer (1A9), ileocecal carcinoma (HCT-8), lung carcinoma (A-549), glioblastoma (U-87-MG), bone (HOS), epidermoid carcinoma of the naynx (KB), P-gp-expressing epidermoid carcinoma of the nasopharynx (KB-VIN), and melanoma (SKMEL-2) cell line. The cytotoxic effects of each compound were obtained as EC50 values, which represent the molar drug concentrations required to cause 50% inhibition.” left out

[4] = system: epidermoid carcinoma of the nasopharynx (KB) cell line; experiment: Activity against HTCL replication, KB; conditions: mean ED50
Procedure: as §1, with “The cell lines included human ovarian cancer (1A9), ileocecal carcinoma (HCT-8), lung carcinoma (A-549), glioblastoma (U-87-MG), bone (HOS), epidermoid carcinoma of the naynx (KB), P-gp-expressing epidermoid carcinoma of the nasopharynx (KB-VIN), and melanoma (SKMEL-2) cell line. The cytotoxic effects of each compound were obtained as EC50 values, which represent the molar drug concentrations required to cause 50% inhibition.” left out

## COc1ccc2[nH]c(-c3cccc(F)c3)c(C(=O)O)c(=O)c2c1 [IX-8, 3′-Fluoro-6-methoxy-2-phenyl-4-quinolone-3-carboxylic acid]
[1]
  IC50: 0.19 µg/mL (≈ 0.606 µM)
[2]
  ED50 CAKI: 10.0 µg/mL (≈ 31.9 µM)
[3]
  ED50 KB-VIN: 0.13 µg/mL (≈ 0.415 µM)
[4]
  ED50 KB: 0.13 µg/mL (≈ 0.415 µM)
